Biological target: T1, MetNI (Escherichia coli, UniProt P30750)
T1 sequence (P30750 1-343): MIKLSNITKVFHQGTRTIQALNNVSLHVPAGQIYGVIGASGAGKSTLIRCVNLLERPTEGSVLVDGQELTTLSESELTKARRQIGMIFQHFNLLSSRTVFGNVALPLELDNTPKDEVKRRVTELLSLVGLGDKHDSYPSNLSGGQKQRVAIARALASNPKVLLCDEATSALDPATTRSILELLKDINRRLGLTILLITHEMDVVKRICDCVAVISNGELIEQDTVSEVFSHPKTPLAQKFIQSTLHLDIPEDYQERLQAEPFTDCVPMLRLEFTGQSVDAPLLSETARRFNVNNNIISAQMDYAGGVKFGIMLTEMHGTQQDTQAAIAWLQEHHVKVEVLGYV
T1 sequence (P31547 1-217 partner): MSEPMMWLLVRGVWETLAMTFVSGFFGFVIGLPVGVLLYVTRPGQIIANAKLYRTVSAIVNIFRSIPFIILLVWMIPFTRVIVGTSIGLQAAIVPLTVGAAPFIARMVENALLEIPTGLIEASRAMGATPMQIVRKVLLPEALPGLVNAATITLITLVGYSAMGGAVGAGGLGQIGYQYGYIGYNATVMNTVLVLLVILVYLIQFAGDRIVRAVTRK
Test: ATPase activity, phosphate production assay
Assay type: biochemical

IC50: ~30 µM
Compound: CSCC[C@H](N)C(=O)O [L-methionine]

— publication PMC2527972 (Science (New York, N.Y.), 2008)
